Data on 21 compounds can be found in publication PMC10708259 (Molecules, 2023).

Molecules are shown by their SMILES.

Test [1] concerns the target T1, human μ-opioid receptor (OPRM1) (Homo sapiens, UniProt P35372).
T1 construct: host or cells: cAMP Hunter CHO-K1
Briefly: cell-based. The format is cell-based. The note with it: for EC50: MOR Agonist EC50 ± SEM; for Emax: read-out: MOR Agonist %Emax ± SEM.

Test [2] concerns the target human δ-opioid receptor (OPRD1) (Homo sapiens, UniProt P41143). Put plainly: Forskolin-induced cAMP accumulation assay, DOR agonist mode. The note with it: for Emax: CHO-K1, read-out: DOR Agonist %Emax ± SEM; for DOR efficacy in words: cAMP assay.
Test [3] addresses T2, human κ-opioid receptor (OPRK1) (Homo sapiens, UniProt P41145). Briefly: Forskolin-induced cAMP accumulation assay, KOR agonist mode. To be noted: for Emax: CHO-K1, read-out: KOR Agonist %Emax ± SEM. (cAMP levels reflect the balance of adenylyl cyclase and phosphodiesterase activity.)
Test [4] addresses T2, human κ-opioid receptor (OPRK1). Put plainly: Forskolin-induced cAMP accumulation assay, KOR antagonist mode.

Chain of human δ-opioid receptor (OPRD1) (P41143 whole entry): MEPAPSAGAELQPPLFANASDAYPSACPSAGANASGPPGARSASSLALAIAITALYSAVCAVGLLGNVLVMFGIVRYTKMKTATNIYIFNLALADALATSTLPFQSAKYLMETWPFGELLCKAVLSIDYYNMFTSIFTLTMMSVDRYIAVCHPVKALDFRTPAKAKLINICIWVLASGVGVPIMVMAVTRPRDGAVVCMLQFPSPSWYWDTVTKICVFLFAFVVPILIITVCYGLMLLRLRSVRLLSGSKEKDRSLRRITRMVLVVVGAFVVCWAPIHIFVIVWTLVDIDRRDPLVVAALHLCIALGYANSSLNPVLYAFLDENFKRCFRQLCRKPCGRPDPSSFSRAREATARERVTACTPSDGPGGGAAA
T2 sequence (P41145 whole entry): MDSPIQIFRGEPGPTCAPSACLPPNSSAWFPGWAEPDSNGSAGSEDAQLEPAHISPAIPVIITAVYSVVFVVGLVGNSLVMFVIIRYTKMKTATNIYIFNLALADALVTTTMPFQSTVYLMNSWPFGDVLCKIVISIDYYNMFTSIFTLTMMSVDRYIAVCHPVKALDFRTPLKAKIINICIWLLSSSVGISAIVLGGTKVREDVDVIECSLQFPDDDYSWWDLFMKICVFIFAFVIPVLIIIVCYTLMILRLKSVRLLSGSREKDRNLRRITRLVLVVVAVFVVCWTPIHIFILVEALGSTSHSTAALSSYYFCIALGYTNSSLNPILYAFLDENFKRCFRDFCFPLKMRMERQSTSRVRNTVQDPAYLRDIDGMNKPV
T1 sequence (P35372 whole entry): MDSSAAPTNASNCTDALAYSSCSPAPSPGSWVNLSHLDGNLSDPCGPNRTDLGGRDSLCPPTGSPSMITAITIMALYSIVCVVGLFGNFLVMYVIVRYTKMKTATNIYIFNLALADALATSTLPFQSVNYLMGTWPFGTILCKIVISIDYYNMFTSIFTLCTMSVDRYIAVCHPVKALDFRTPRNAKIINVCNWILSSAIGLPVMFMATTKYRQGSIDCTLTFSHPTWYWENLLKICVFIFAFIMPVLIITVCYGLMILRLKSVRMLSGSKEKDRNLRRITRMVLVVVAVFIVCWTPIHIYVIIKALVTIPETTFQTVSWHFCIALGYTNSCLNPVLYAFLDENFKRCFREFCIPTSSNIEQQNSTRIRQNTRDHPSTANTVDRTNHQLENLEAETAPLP

The term EC50 denotes the concentration at which the effect is half-maximal. A low value points to an effect from little substance. As a reminder, the Emax is the maximal effect, on the per cent scale that the assay sets. Turning to `C[C@@H]1[C@@H]2C(O)c3ccc(O)cc3[C@@]1(C)CCN2CCc1ccccc1` (single isomer, unassigned; (+)) [(+)-36], the EC50 in test [1] is 25.2 nM; in test [2], 1910 ± 232 nM; in test [3], more than 10000 nM. For the same compound, the figures for the Emax in test [1] and in test [2] were 103% and 97%, respectively.
Usually IC50 stands for the midpoint of a concentration-inhibition curve. Regarding `CC1c2ccc(O)cc2[C@@]2(C)CCN(CCc3ccccc3)[C@@H]1[C@H]2C` (single isomer, unassigned; (+)) [(+)-39], the EC50 in test [1] is 21.7 nM; in test [2], 1340 ± 389 nM; in test [3] it was 953 ± 120 nM. Also, the figures for the Emax in test [1], in test [2] and in test [3] were 103%, 94% and 37%, respectively. In test [4], this compound returned a half-maximal inhibitory concentration (IC50) of more than 10000 nM.
Consider `C=C1c2ccc(O)cc2[C@@]2(C)CCN(CCc3ccccc3)[C@@H]1[C@H]2C` [(+)-38, (2R,6S,11S)-6,11-Dimethyl-1-methylene-3-phenethyl-1,2,3,4,5,6-hexahydro-2,6-methanobenzo[d]azocin-8-ol], for which the EC50 in test [1] turned out to be 70 nM; in test [2] it was 978 ± 374 nM; in test [3] it was 1180 ± 46 nM. The results for the Emax in test [1], in test [2] and in test [3] were 102%, 92% and 53%, respectively.
Regarding `C=C1c2ccc(O)cc2[C@]2(C)CCN(CCc3ccccc3)[C@H]1[C@@H]2C` [(−)-38, (2S,6R,11R)-6,11-Dimethyl-1-methylene-3-phenethyl-1,2,3,4,5,6-hexahydro-2,6-methanobenzo[d]azocin-8-ol], in test [1], the “MOR potency relative to morphine (times more potent than morphine)” value (“MOR potency relative to morphine” for short) is given as “about 25 times”, the EC50 was determined as 0.23 nM and the Emax is 101%. For the same compound, in test [2], the EC50 stood at 4.9 ± 3 nM and the Emax was 89%. Besides, in test [3], the concentration giving a half-maximal response (EC50) was 9.5 ± 2 nM and the Emax was 57 ± 45.6%.
For the compound `CC1C2Cc3ccc(O)cc3C1(C)CCN2CCc1ccc([N+](=O)[O-])cc1` [Compound 3, (1R,5R,9R)-6,11-Dimethyl-3-(4-nitrophenethyl)-1,2,3,4,5,6-hexahydro-2,6-methanobenzo[d]azocin-8-ol], in test [1], the EC50 worked out at 0.3 nM and the Emax is 101%. Also, in test [2], the EC50 stood at 2.7 ± 1 nM, the Emax is 88% and the “DOR efficacy in words” value is “partial DOR agonists”. In test [3], a half-maximal response (EC50) required 13 ± 0.5 nM and the Emax is 46%.
In the case of `CC1C2Cc3ccc(O)cc3C1(C)CCN2CCc1cccc([N+](=O)[O-])c1` [Compound 4, (1R,5R,9R)-6,11-Dimethyl-3-(3-nitrophenethyl)-1,2,3,4,5,6-hexahydro-2,6-methanobenzo[d]azocin-8-ol], in test [1], the half-maximal effective concentration (EC50) came to 26 nM and the Emax was 71%.
In the case of `CC1C2Cc3ccc(O)cc3C1(C)CCN2CCc1ccccc1F` [Compound 8, (1R,5R,9R)-6,11-Dimethyl-3-(2-fluorophenethyl)-1,2,3,4,5,6-hexahydro-2,6-methanobenzo[d]azocin-8-ol], in test [1], the “MOR potency relative to morphine” value was “about 30 times”, the EC50 came to 0.2 nM and the Emax is 101%. In test [2], a half-maximal response (EC50) required 6 ± 2 nM and the Emax was 87%. In test [3], the EC50 is 6 ± 1 nM and the Emax is 45%.
In the case of `CC1C2Cc3ccc(O)cc3C1(C)CCN2CCc1ccc(C(F)(F)F)cc1` [Compound 9, (1R,5R,9R)-6,11-Dimethyl-3-(4-trifluoromethylphenethyl)-1,2,3,4,5,6-hexahydro-2,6-methanobenzo[d]azocin-8-ol], the EC50 in test [1] was found to be 2 nM; in test [2] it was 3 ± 1 nM; in test [3], 23 ± 5 nM. Further, the Emax in test [1] was 102%; in test [2], 72%; in test [3], 100%. In addition, in test [2], the “DOR efficacy in words” value is listed as “partial DOR agonists”.
For `CC1C2Cc3ccc(O)cc3C1(C)CCN2CCc1cccc(C(F)(F)F)c1` [Compound 10, (1R,5R,9R)-6,11-Dimethyl-3-(3-trifluoromethylphenethyl)-1,2,3,4,5,6-hexahydro-2,6-methanobenzo[d]azocin-8-ol], in test [1], the response was half-maximal at 167 nM (EC50) and the Emax was 63%.
In the case of `CC1C2Cc3ccc(O)cc3C1(C)CCN2CCc1ccccc1C(F)(F)F` [Compound 11, (1R,5R,9R)-6,11-Dimethyl-3-(2-trifluoromethylphenethyl)-1,2,3,4,5,6-hexahydro-2,6-methanobenzo[d]azocin-8-ol], the half-maximal effective concentration (EC50) was 6 nM in test [1], 24 ± 5 nM in test [2] and 36 ± 3 nM in test [3]. In addition, the Emax in test [1] is 102%; in test [2], 77%; in test [3], 72%.
In the case of `CC1C2Cc3ccc(O)cc3C1(C)CCN2CCc1ccc(Br)cc1` [Compound 12, (1R,5R,9R)-6,11-Dimethyl-3-(4-bromophenethyl)-1,2,3,4,5,6-hexahydro-2,6-methanobenzo[d]azocin-8-ol], in test [1], the midpoint of the response, the EC50, lay at 0.7 nM and the Emax was 102%. In test [2], the concentration for a half-maximal effect (EC50) amounted to 1.1 ± 0.3 nM, the Emax is 89% and the “DOR efficacy in words” value was “partial DOR agonists”. In test [3], the EC50 came out at 5 ± 2 nM and the maximal response (Emax) was 100%.
On to `CC1C2Cc3ccc(O)cc3C1(C)CCN2CCc1ccccc1Br` [Compound 14, (1R,5R,9R)-6,11-Dimethyl-3-(2-bromophenethyl)-1,2,3,4,5,6-hexahydro-2,6-methanobenzo[d]azocin-8-ol], for which the EC50 in test [1] came out at 2 nM; in test [2], 13 ± 2 nM; in test [3], 16 ± 2 nM. Also, the maximum response (Emax) in test [1] is 101%; in test [2], 89%; in test [3], 80%.
As to `CC1C2Cc3ccc(O)cc3C1(C)CCN2CCc1ccc(Cl)cc1` [Compound 15, (1R,5R,9R)-6,11-Dimethyl-3-(4-chlorophenethyl)-1,2,3,4,5,6-hexahydro-2,6-methanobenzo[d]azocin-8-ol], in test [1], the concentration for a half-maximal effect (EC50) was found to be 1.3 nM and the Emax is 103%. In test [2], the EC50 worked out at 1.2 ± 0.5 nM, the Emax is 89% and the “DOR efficacy in words” value is “partial DOR agonists”. Besides, in test [3], a half-maximal effect (EC50) was put at 5 ± 1 nM and the Emax was 97%.
For `CC1C2Cc3ccc(O)cc3C1(C)CCN2CCc1ccccc1Cl` [Compound 17, (1R,5R,9R)-6,11-Dimethyl-3-(2-chlorophenethyl)-1,2,3,4,5,6-hexahydro-2,6-methanobenzo[d]azocin-8-ol], the values for the EC50 in test [1], in test [2] and in test [3] were 1.4 nM, 15 ± 4 nM and 8 ± 1 nM, respectively. In addition, the Emax in test [1] was 101%; in test [2], 87%; in test [3] it was 57%.
On to `COc1ccc(CCN2CCC3(C)c4cc(O)ccc4CC2C3C)cc1` [Compound 18, (1R,5R,9R)-6,11-Dimethyl-3-(4-methoxyphenethyl)-1,2,3,4,5,6-hexahydro-2,6-methanobenzo[d]azocin-8-ol], for which the figures for the concentration giving a half-maximal response (EC50) in test [1], in test [2] and in test [3] were 1.2 nM, 4 ± 1 nM and 9 ± 2 nM, respectively. Also, the Emax was 103% in test [1], 87% in test [2] and 89% in test [3].
With `Cc1ccc(CCN2CCC3(C)c4cc(O)ccc4CC2C3C)cc1` [Compound 19, (1R,5R,9R)-6,11-Dimethyl-3-(4-methylphenethyl)-1,2,3,4,5,6-hexahydro-2,6-methanobenzo[d]azocin-8-ol], the figures for the EC50 in test [1], in test [2] and in test [3] were 1.4 nM, 5 ± 2 nM and 13 ± 3 nM, respectively. For the same compound, the Emax was 103% in test [1], 87% in test [2] and 93% in test [3].
As to `CC1C2Cc3ccc(O)cc3C1(C)CCN2CCc1ccc(O)cc1` [Compound 20, (1R,5R,9R)-6,11-Dimethyl-3-(4-hydroxyphenethyl)-1,2,3,4,5,6-hexahydro-2,6-methanobenzo[d]azocin-8-ol], in test [1], the “MOR potency relative to morphine” value is approximately 40 times, the half-maximal effective concentration (EC50) was determined as 0.13 nM and the Emax was 102%. In addition, in test [2], the concentration for a half-maximal effect (EC50) was determined as 5 ± 1 nM and the Emax was 84%. Further, in test [3], the EC50 is 8 ± 3 nM and the Emax is 97%.
For the compound `CC1C2Cc3ccc(O)cc3C1(C)CCN2CCc1ccc(Cl)cc1Cl` [Compound 21, (1R,5R,9R)-6,11-Dimethyl-3-(2,4-dichlorophenethyl)-1,2,3,4,5,6-hexahydro-2,6-methanobenzo[d]azocin-8-ol], the EC50 in test [1] is 5 nM; in test [2] it was 37 ± 9 nM; in test [3] it was 42 ± 10 nM. For the same compound, the Emax is 103% in test [1], 86% in test [2] and 93% in test [3].
`C[C@H]1[C@H]2Cc3ccc(O)cc3[C@]1(C)CCN2CCCc1ccccc1` [Compound 24, (1R,5R,9R)-6,11-Dimethyl-3-(phenylpropyl)-1,2,3,4,5,6-hexahydro-2,6-methanobenzo[d]azocin-8-ol]: in test [1], the “MOR agonist potency / efficacy in words” value was “little or no potency”, the EC50 was 69 nM and the Emax came out at 101%.
In the same order, the values of `CC1C2Cc3ccc(O)cc3C1(C)CCN2CC=Cc1ccccc1` [Compound 25, (1R,5R,9R)-6,11-Dimethyl-3-(cinnamyl)-1,2,3,4,5,6-hexahydro-2,6-methanobenzo[d]azocin-8-ol] are “little or no potency”, 244 nM and 101%.
As for `C[C@H]1[C@H]2Cc3ccc(O)cc3[C@]1(C)CCN2CCCc1ccc([N+](=O)[O-])cc1` [Compound 31, (1R,5R,9R)-6,11-Dimethyl-3-(3-(4-nitrophenyl)propyl)-1,2,3,4,5,6-hexahydro-2,6-methanobenzo[d]azocin-8-ol], in test [1], the “MOR agonist potency / efficacy in words” value is reported as “little or no potency” and the EC50 was not below 10000 nM.
